Here are results for eleven molecules from PMC5957473, “Small Molecule Neuropilin-1 Antagonists Combine Antiangiogenic and Antitumor Activity with Immune Modulation through Reduction of Transforming Growth Factor Beta (TGFβ) Production in Regulatory T-Cells” (Journal of Medicinal Chemistry, 2018).

Each structure is given as a SMILES string.

One series deals with T1, NRP1-b1 (Homo sapiens, UniProt O14786).
T1 construct: His6 (TEV protease-cleavable) (N); made in house; host or cells: Escherichia coli Rosetta Gami 2 (DE3) pLysS
T1 sequence (O14786 273-427): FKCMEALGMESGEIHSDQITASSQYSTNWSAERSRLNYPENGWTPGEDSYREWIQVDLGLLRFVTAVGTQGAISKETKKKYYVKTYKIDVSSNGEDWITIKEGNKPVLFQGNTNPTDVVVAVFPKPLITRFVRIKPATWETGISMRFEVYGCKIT
The series is described as follows: SPR equilibrium binding assay (Biacore 4000), immobilised NRP1-b1. To be noted: equilibrium (steady-state) binding, 25 °C, average ± SD of high and low density surfaces. How it is done: All the compounds were evaluated using an SPR binding assay (Biacore) where recombinant NRP1-b1b2 protein was immobilized on a dextran coated chip.[23] Selected compounds were then evaluated in competitive binding assay systems using biotinylated VEGF. […] This encouraging result prompted us to conduct a more focused structure–activity study around the 10a structure.
Surface plasmon resonance experiments were performed using a Biacore 4000 instrument at 25 °C. Sensor chips, buffer stock solutions, and immobilization reagents were from GE Healthcare. Recombinant human NRP1-b1 was as above. Other reagents were obtained from Sigma. Immobilization: PBS (containing 0.05% surfactant P20) was used as the running buffer. The four flow cells were treated in the same way to optimize throughput. In summary, using a CM5 chip spots 1 and 2 were activated with the coupling reagents EDC and NHS for 10 min. NRP1-b1 at a concentration of 20 μg/mL in 10 mM sodium acetate pH 5 was injected onto the surface for 10 and 5 min in spots 1 and 2, respectively, to generate surfaces with high and low density. The immobilization levels ranged from 2302 to 1823 RU on spot 1 and from 948 to 1112 RU in spot 2. The unmodified spot 3 was used as a reference. […] Dose–responses were obtained using a 2-fold sample dilution from 16 μM to 31 nM, using an injection time of 60 s. Surface regeneration between injections was not necessary, but a wash step with 1 M NaCl was included after injection of the highest concentration sample for each compound. Data processing: Binding curves were corrected for variations in DMSO concentration and normalized by molecular weight. Binding results to high and low-density surfaces were processed independently and the average ± SD is presented. KDs reported are derived from steady-state binding responses and therefore correspond to the equilibrium binding affinity of the compounds.
A general note: Surface plasmon resonance follows binding to a sensor surface in real time, without labels.

The next series concerns NRP1. On the set-up: method as in PMID 20151671. The conditions noted are these: read-out: IC50, inhibition of bt-VEGF-A binding to NRP1; cited from earlier work.
Series [1] has as its system HUVEC cells. Further details: method as in PMID 20151671. To be noted: 100 μM in combination with VEGF-A; cited from earlier work.
The subject of the next series is Nrp1+ Tregs. The series is described as follows: TGFβ production by Nrp1+ Tregs exposed to glioma conditioned media (ELISA). Type of series: cell-based, mice. The conditions noted are these: 500 nM pretreatment 2 h, GCM 12 h. Background: ELISA stands for enzyme-linked immunosorbent assay.
In a further series the target is T2, NRP2 (Homo sapiens, UniProt O60462).
T2 sequence (O60462 23-802 limits assumed): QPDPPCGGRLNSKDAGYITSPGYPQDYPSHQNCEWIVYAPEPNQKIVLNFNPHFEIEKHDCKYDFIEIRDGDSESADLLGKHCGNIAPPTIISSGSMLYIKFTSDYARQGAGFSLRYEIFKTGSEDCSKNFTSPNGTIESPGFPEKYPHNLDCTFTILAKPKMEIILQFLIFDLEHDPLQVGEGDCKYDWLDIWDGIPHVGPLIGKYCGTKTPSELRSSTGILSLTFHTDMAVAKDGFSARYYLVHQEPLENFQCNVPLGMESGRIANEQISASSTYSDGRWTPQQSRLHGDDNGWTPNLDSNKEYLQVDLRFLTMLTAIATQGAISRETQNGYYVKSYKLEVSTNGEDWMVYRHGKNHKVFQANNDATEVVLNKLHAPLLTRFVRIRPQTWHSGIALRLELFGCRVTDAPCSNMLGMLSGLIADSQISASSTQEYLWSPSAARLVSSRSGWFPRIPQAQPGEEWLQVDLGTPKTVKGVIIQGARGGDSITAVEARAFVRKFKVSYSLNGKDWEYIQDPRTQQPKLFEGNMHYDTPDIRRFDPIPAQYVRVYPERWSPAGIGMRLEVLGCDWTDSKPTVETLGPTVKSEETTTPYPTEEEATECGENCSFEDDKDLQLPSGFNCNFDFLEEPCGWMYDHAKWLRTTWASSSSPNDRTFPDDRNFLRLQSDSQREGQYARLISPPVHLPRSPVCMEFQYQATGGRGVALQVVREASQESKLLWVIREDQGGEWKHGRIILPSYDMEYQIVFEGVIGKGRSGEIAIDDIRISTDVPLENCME
The series is described as follows: SPR single-cycle binding to NRP2 (Biacore T200). To be noted: 62.5 – 1000 nM, NRP2 His tagged and NRP2-Fc chimera.

For a further series, the target named is T3, DU145/cells.Ad.NRP1 (Homo sapiens, UniProt O14786).
T3 construct: expressed in transfected cells; host or cells: DU145 prostate cancer cells (ATCC) infected with adenovirus
T3 sequence (O14786 22-923): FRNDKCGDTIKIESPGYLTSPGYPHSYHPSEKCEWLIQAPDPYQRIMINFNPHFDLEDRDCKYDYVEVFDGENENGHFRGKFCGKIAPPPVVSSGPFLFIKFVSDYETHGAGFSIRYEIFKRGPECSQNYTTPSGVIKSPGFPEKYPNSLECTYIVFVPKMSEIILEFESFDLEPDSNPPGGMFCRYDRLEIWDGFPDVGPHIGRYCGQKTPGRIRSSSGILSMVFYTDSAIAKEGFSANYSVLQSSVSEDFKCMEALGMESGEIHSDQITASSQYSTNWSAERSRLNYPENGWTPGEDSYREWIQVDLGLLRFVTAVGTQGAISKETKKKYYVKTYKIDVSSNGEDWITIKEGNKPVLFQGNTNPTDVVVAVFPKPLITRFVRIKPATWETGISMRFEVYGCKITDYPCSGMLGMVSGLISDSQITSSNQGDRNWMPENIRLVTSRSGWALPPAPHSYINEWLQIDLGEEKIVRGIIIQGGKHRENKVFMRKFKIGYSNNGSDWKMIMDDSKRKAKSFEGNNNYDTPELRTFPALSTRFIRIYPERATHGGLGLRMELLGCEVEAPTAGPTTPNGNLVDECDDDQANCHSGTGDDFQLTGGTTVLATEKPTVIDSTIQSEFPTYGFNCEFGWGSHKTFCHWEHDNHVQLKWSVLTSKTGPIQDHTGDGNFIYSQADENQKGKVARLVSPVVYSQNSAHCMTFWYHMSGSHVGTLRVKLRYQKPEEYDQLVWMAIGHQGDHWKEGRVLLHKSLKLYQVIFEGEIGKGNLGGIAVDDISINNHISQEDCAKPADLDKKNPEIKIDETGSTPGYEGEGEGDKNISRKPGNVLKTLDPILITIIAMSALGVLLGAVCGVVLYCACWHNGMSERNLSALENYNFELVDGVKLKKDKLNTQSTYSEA
Description: Cell-based competition binding with bt-VEGF in DU145 cells infected with adenovirus expressing WT NRP1. The conditions noted are these: HS value in brackets beside IC50.

In series [2] the test system is HUVEC cells. Description: Wound healing scratch assay. Format: cell-based, human. To be noted: 30 μM + VEGF-A 25 ng/mL, 1% EGM.
Series [3] relates to HUVEC cells. Description: Transwell migration (chemotaxis) of HUVEC cells toward VEGF-A. Format: cell-based, human. The conditions noted are these: 30 μM, no VEGF-A.
Series [4] is described as follows: IV pharmacokinetics in mice. Type of series: in vivo. The conditions noted are these: for half-life: 2 mg/kg. How it is done:
To test compound drug-like properties, selected compounds with low IC50 were further tested for pharmacokinetics (PK) profile. First, 6–8 week-old BABL/c female mice were used, then 2 mg/kg of compounds was formulated in 7.5% DMSO and 92.5% solution and intravenously dosed from the tail vein as a bolus. Blood samples were collected by cardiac puncture at 5, 15, 30, 60, 180, and 240 min post dosing. Plasma samples were prepared by centrifugation at 7000 rpm for 5 min, and supernatants were collected, immediately snap-frozen on dry ice, and stored at −20C. Samples were analyzed by liquid chromatography–tandem mass spectrometry using electrospray ionization and data was analyzed by WinNonlin software.

Series [5] deals with A375P (malignant melanoma) cells. The series is described as follows: 3D spheroid invasion assay. Format: cell-based.
The mark [6] stands for this setting: female, BABL/c (so in the source); BALB/c), mouse, plasma, IV bolus 2 mg/kg.

In the case of `N=C(N)NCCC[C@H](NC(=O)c1sccc1NS(=O)(=O)c1cc(-c2ccccc2CNCc2cc[nH]n2)cc2c1OCC2)C(=O)O` [9c, N2-(3-((5-(2-((((1H-Pyrazol-3-yl)methyl)amino)methyl)phenyl)-2,3-dihydrobenzofuran)-7-sulfonamido)thiophene-2-carbonyl)-Nω-((2,2,4,6,7-pentamethyl-2,3-dihydrobenzofuran-5-yl)sulfonyl)-L-arginine], binding at NRP1-b1 was characterised by a dissociation constant (Kd) of 2100 ± 40 nM.

`N=C(N)NCCC[C@H](NC(=O)c1sccc1NS(=O)(=O)c1cc(-c2ccccc2CNCc2ccccn2)cc2c1OCC2)C(=O)O` [9e, Nω-((2,2,4,6,7-Pentamethyl-2,3-dihydrobenzofuran-5-yl)sulfonyl)-N2-(3-((5-(2-(((pyridin-2-ylmethyl)amino)methyl)phenyl)-2,3-dihydrobenzofuran)-7-sulfonamido)thiophene-2-carbonyl)-L-arginine] registered an equilibrium dissociation constant (Kd) on NRP1-b1 of 680 ± 210 nM.

`N=C(N)NCCC[C@H](NC(=O)c1sccc1NS(=O)(=O)c1cc(-c2cccc(CNCc3ncc[nH]3)c2)cc2c1OCC2)C(=O)O` [10b, N2-(3-((5-(3-((((1H-Imidazol-2-yl)methyl)amino)methyl)phenyl)-2,3-dihydrobenzofuran)-7-sulfonamido)thiophene-2-carbonyl)-Nω-((2,2,4,6,7-pentamethyl-2,3-dihydrobenzofuran-5-yl)sulfonyl)-L-arginine] yielded a Kd on NRP1-b1 of 840 ± 160 nM.

As to `N=C(N)NCCC[C@H](NC(=O)c1sccc1NS(=O)(=O)c1cccc2nsnc12)C(=O)O` [EG00229, (S)-2-(3-(benzo[c][1,2,5]thiadiazole-4-sulfonamido)thiophene-2-carboxamido)-5-((diaminomethylene)amino)pentanoic acid], in the series with NRP1, the IC50 is 8000 nM. For the same molecule, the “reduction of migration (previously reported)” value in the series on HUVEC cells [1] is recorded as “≈ 34%”.

`N=C(N)NCCC[C@H](NC(=O)c1sccc1NS(=O)(=O)c1cc(-c2ccccc2CNCc2ncc[nH]2)cc2c1OCC2)C(=O)O` [9b, N2-(3-((5-(2-((((1H-Imidazol-2-yl)methyl)amino)methyl)phenyl)-2,3-dihydrobenzofuran)-7-sulfonamido)thiophene-2-carbonyl)-Nω-((2,2,4,6,7-pentamethyl-2,3-dihydrobenzofuran-5-yl)sulfonyl)-L-arginine] came in with a Kd at NRP1-b1 of 1770 ± 100 nM.

`N=C(N)NCCC[C@H](NC(=O)c1sccc1NS(=O)(=O)c1cc(-c2ccc(CN)cc2)cc2c1OCC2)C(=O)O` [compound 1, (3-((5-(4-(Aminomethyl)phenyl)-2,3-dihydrobenzofuran)-7-sulfonamido)thiophene-2-carbonyl)-L-arginine]: the “effect on GCM-induced production of TGFβ” value in the series with Nrp1+ Tregs is listed as “inhibited the GCM-induced production of TGFβ”. In addition, the “binding to NRP2 by SPR” value at NRP2 was “no detectable NRP2 binding”. In addition, the “DU145/cells.Ad.NRP1, (HS)” value at DU145/cells.Ad.NRP1 is 0.9. For the same molecule, the “effect on VEGF-induced wound closure” value in the series with HUVEC cells [2] is on record as “can delay the VEGF-induced wound closure”. In addition, the “effect on HUVEC migration, compound alone” value in the series on HUVEC cells [3] was “did not influence the migratory ability of these cells”. In series [4] (female, BABL/c, mouse, plasma, IV), this molecule gave a half-life of 4.29 h. For the same molecule, the clearance in [4] (female, BABL/c, mouse, plasma, IV bolus 2 mg/kg) worked out at 14 mL/min/kg. The “effect on A375P spheroid invasion induced by VEGF-A” value in series [5] (30 μM + VEGF-A 25 ng/mL, 7 days) is “significantly inhibited invasion induced by VEGF-A”. The “effect on A375P radial invasion, compound alone” value in series [5] (30 μM, compared to DMSO control) is “no significant effect on radial invasion”.

On to `N=C(N)NCCC[C@H](NC(=O)c1sccc1NS(=O)(=O)c1cc(-c2ccccc2CNCc2cn[nH]c2)cc2c1OCC2)C(=O)O` [9d, N2-(3-((5-(2-((((1H-Pyrazol-4-yl)methyl)amino)methyl)phenyl)-2,3-dihydrobenzofuran)-7-sulfonamido)thiophene-2-carbonyl)-Nω-((2,2,4,6,7-pentamethyl-2,3-dihydrobenzofuran-5-yl)sulfonyl)-L-arginine], for which the dissociation constant Kd at NRP1-b1 is 2140 ± 70 nM.

With `N=C(N)NCCC[C@H](NC(=O)c1sccc1NS(=O)(=O)c1cc(-c2cccc(CNCc3cn[nH]c3)c2)cc2c1OCC2)C(=O)O` [10d, N2-(3-((5-(3-((((1H-Pyrazol-4-yl)methyl)amino)methyl)phenyl)-2,3-dihydrobenzofuran)-7-sulfonamido)thiophene-2-carbonyl)-Nω-((2,2,4,6,7-pentamethyl-2,3-dihydrobenzofuran-5-yl)sulfonyl)-L-arginine], on NRP1-b1, binding was characterised by a dissociation constant (Kd) of 1430 ± 110 nM. This molecule also returned a t1/2 in [4] (IV bolus 2 mg/kg) of 1.20 h. In series [4] (female, BABL/c (so in the source); BALB/c), mouse, plasma, IV), the half-life is 1.2 h. Moreover, in series [4] (setting [6]), the AUC(0-inf) was determined as 3140 ng·h/mL, the Cmax amounted to 2620 ng/mL, the time to peak (Tmax) amounted to 4.8 min and the distribution volume (Vd) amounted to 1.1 L/kg. Also, the clearance in series [4] (setting [6]) is 18.4 mL/min/kg.

In the case of `N=C(N)NCCC[C@H](NC(=O)c1sccc1NS(=O)(=O)c1cc(-c2cccc(CNCc3cc[nH]n3)c2)cc2c1OCC2)C(=O)O` [10c, N2-(3-((5-(3-((((1H-Pyrazol-3-yl)methyl)amino)methyl)phenyl)-2,3-dihydrobenzofuran)-7-sulfonamido)thiophene-2-carbonyl)-Nω-((2,2,4,6,7-pentamethyl-2,3-dihydrobenzofuran-5-yl)sulfonyl)-L-arginine], the affinity at NRP1-b1, expressed as Kd, was 1450 ± 70 nM.

For the molecule `CN(C)Cc1cccc(-c2cc3c(c(S(=O)(=O)Nc4ccsc4C(=O)N[C@@H](CCCNC(=N)N)C(=O)O)c2)OCC3)c1` [compound 13, (3-((5-(3-((Dimethylamino)methyl)phenyl)-2,3-dihydrobenzofuran)-7-sulfonamido)thiophene-2-carbonyl)-L-arginine], the “clearance and AUC compared with 1” value in series [4] (IV, in words) was “notably higher clearance and lower AUC than 1”.

`N=C(N)NCCC[C@H](NC(=O)c1sccc1NS(=O)(=O)c1cc(-c2cccc(CNCc3ccccn3)c2)cc2c1OCC2)C(=O)O` [10e, Nω-((2,2,4,6,7-Pentamethyl-2,3-dihydrobenzofuran-5-yl)sulfonyl)-N2-(3-((5-(3-(((pyridin-2-ylmethyl)amino)methyl)phenyl)-2,3-dihydrobenzofuran)-7-sulfonamido)thiophene-2-carbonyl)-L-arginine] came in with a Kd on NRP1-b1 of 410 ± 90 nM.

One may read the Kd as the free concentration of one partner at which half of the binding sites on the other are occupied at equilibrium, for simple one-to-one binding. A lower Kd goes with tighter binding. One may read the IC50 as the concentration that inhibits the measured activity by half. One may read the half-life as the time needed for the level to fall by half in the phase considered. A low value points to fast loss. In general, clearance refers to the volume of plasma or blood freed of the substance per unit of time. A higher clearance goes with efficient removal. In general, AUC(0-inf) refers to total exposure, with the tail of the curve extrapolated. A higher AUC(0-inf) goes with more exposure. What is called Cmax is the peak of the concentration-time curve. As usually defined, the Tmax is the time at which the peak concentration occurs. By Vd is commonly meant the apparent volume that relates the amount in the body to the concentration in plasma or blood.
